Data reported in patent US12435060B2, “Acylamino bridged heterocyclic compound, and composition and application thereof” (BEIJING SCITECH-MQ PHARMACEUTICALS LIMITED, priority 2019, dated 2025).

System: HT29 cells
Assay: Inhibition of cell necrosis (CCK8 method), induced programmed necrosis of HT29 cells
Format: cell-based
Conditions: Homo sapiens, HT-29; rescue from necrosis induced by TNF-α 20 ng/mL, AT-406 1 μM, Z-VAD-FMK 20 μM; 16-20 hours; CCK-8, OD 450 nm
Summary of the method: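 HT29 cells in McCOY's 5A with 10% FBS were pre-treated for 30 min with compound (9 fourfold steps, 25000 to 0.38 nM final, 0.25% DMSO). Necrosis was then induced with TNF-α 20 ng/mL, AT-406 1 μM and Z-VAD-FMK 20 μM for 16-20 h. Viability was read by CCK-8 OD450, normalized between uninduced and induced wells, and IC50 was curve-fitted.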

Cc1ccc(C#N)cc1-c1ccnc(NC(=O)c2nnc(Cc3ccccc3)[nH]2)c1 [Example 35, 5-benzyl-N-(4-(5-cyano-2-methylphenyl)pyridin-2-yl)-4H-1,2,4-triazole-3-carboxamide]
IC50: ≤ 100 nM

Cc1ccc(OCCC2CCOCC2)cc1-c1ccnc(NC(=O)c2nnc(CC3CCCC3)[nH]2)c1 [Example 88, 5-(cyclopentylmethyl)-N-(4-(2-methyl-5-(2-(tetrahydro-2H-pyran-4-yl)ethoxy)phenyl)pyridin-2-yl)-4H-1,2,4-triazole-3-carboxamide]
IC50: ≤ 100 nM

O=C(Nc1cc(-c2cc(OCCC3CCOCC3)ccc2Cl)ccn1)c1nnc(CC2CCCC2)[nH]1 [Example 405, N-(4-(2-chloro-5-(2-(tetrahydro-2H-pyran-4-yl)ethoxy)phenyl)pyridin-2-yl)-5-(cyclopentylmethyl)-4H-1,2,4-triazole-3-carboxamide]
IC50: ≤ 100 nM

CC(C)(O)CCCOc1ccc(Cl)c(-c2ccnc(NC(=O)c3nnc(Cc4cc(F)c(F)cc4F)[nH]3)c2)c1 [Example 355, N-(4-(2-chloro-5-((4-hydroxy-4-methylpentyl)oxy)phenyl)pyridin-2-yl)-5-(2,4,5-trifluorobenzyl)-4H-1,2,4-triazole-3-carboxamide]
IC50: 100 to 1000 nM

CC(C)(O)CCCOc1ccc(Cl)c(-c2ccnc(NC(=O)c3nnc(CC4CCCC4)[nH]3)c2)c1 [Example 356, N-(4-(2-chloro-5-((4-hydroxy-4-methylpentyl)oxy)phenyl)pyridin-2-yl)-5-(cyclopentylmethyl)-4H-1,2,4-triazole-3-carboxamide]
IC50: ≤ 100 nM

Cc1ccc(OCCCCC(C)(C)O)cc1-c1cc(NC(=O)c2nnc(Cc3ccccc3F)[nH]2)ncc1Cl [Example 247, N-(5-chloro-4-(5-((5-hydroxyl-5-methylhexyl)oxy)-2-methylphenyl)pyridin-2-yl)-5-(2-fluorobenzyl)-4H-1,2,4-triazole-3-carboxamide]
IC50: 100 to 1000 nM

O=C(Nc1cc(-c2cc(OCCC3CCOCC3)ccc2C(F)(F)F)ncn1)c1nnc(Cc2ccccc2)[nH]1 [Example 458, 5-benzyl-N-(6-(5-(2-(tetrahydro-2H-pyran-4-yl)ethoxy)-2-(trifluoromethyl)phenyl)pyrimidin-4-yl)-4H-1,2,4-triazole-3-carboxamide]
IC50: ≤ 100 nM

Cc1ccc(OCCCC(C)(C)O)cc1-c1ccnc(NC(=O)c2nnc(Cc3cc(F)ccc3F)[nH]2)c1 [Example 203, 5-(2,5-difluorobenzyl)-N-(4-(5-((4-hydroxy-4-methylpentyl)oxy)-2-methylphenyl)pyridin-2-yl)-4H-1,2,4-triazole-3-carboxamide]
IC50: ≤ 100 nM

Cc1ccc(OCCCC(C)(C)O)cc1-c1ccnc(NC(=O)c2nnc(Cc3c(F)ccc(F)c3F)[nH]2)c1 [Example 216, 5-(2,3,6-trifluorobenzyl)-N-(4-(5-((4-hydroxy-4-methylpentyl)oxy)-2-methylphenyl)pyridin-2-yl)-4H-1,2,4-triazole-3-carboxamide]
IC50: ≤ 100 nM

Cc1ccc(OCCCCCO)cc1-c1ccnc(NC(=O)c2nnc(CC3CCCC3)[nH]2)c1 [Example 224, 5-(cyclopentylmethyl)-N-(4-(5-((5-hydroxypentyl)oxy)-2-methylphenyl)pyridin-2-yl)-4H-1,2,4-triazole-3-carboxamide]
IC50: ≤ 100 nM

COc1ccc(C)c(-c2cncc(NC(=O)c3nnc(Cc4ccccc4)[nH]3)c2)c1 [Example 196, 5-benzyl-N-(5-(5-methoxy-2-methylphenyl)pyridin-3-yl)-4H-1,2,4-triazole-3-carboxamide]
IC50: > 10000 nM

CCn1nc(C)cc1-c1ccnc(NC(=O)c2nnc(Cc3ccccc3)[nH]2)c1 [Example 109, 5-benzyl-N-(4-(1-ethyl-3-methyl-1H-pyrazol-5-yl)pyridin-2-yl)-4H-1,2,4-triazole-3-carboxamide]
IC50: 1000 to 10000 nM

O=C(Nc1cc(-c2cc(OCCC3CCOCC3)ccc2Cl)c(F)cn1)c1nnc(Cc2ccccc2F)[nH]1 [Example 428, N-(4-(2-chloro-5-(2-(tetrahydro-2H-pyran-4-yl)ethoxy)phenyl)-5-fluoropyridin-2-yl)-5-(2-fluorobenzyl)-4H-1,2,4-triazole-3-carboxamide]
IC50: ≤ 100 nM

Cc1cnc(NC(=O)c2nnc(Cc3ccccc3F)[nH]2)cc1-c1cc(OCC2CCOCC2)ccc1Cl [Example 426, N-(4-(2-chloro-5-((tetrahydro-2H-pyran-4-yl)methoxy)phenyl)-5-methylpyridin-2-yl)-5-(2-fluorobenzyl)-4H-1,2,4-triazole-3-carboxamide]
IC50: 100 to 1000 nM

Cc1ccc(OCCC2CCOCC2)cc1-c1ccnc(NC(=O)c2nnc(Cc3ccccc3)[nH]2)c1 [Example 87, 5-benzyl-N-(4-(2-methyl-5-(2-(tetrahydro-2H-pyran-4-yl)ethoxy)phenyl)pyridin-2-yl)-4H-1,2,4-triazole-3-carboxamide]
IC50: ≤ 100 nM

Cc1ccc(OCC2CCN(C)CC2)cc1-c1ccnc(NC(=O)c2nnc(Cc3ccccc3F)[nH]2)c1 [Example 234, 5-(2-fluorobenzyl)-N-(4-(2-methyl-5-((1-methylpiperidin-4-yl)methoxy)phenyl)pyridin-2-yl)-4H-1,2,4-triazole-3-carboxamide]
IC50: ≤ 100 nM

COCCN(C)c1ccc(C)c(-c2ccnc(NC(=O)c3nnc(Cc4ccccc4)[nH]3)c2)c1 [Example 55, 5-benzyl-N-(4-(5-((2-methoxyethyl)(methyl)amino)-2-methylphenyl)pyridin-2-yl)-4H-1,2,4-triazole-3-carboxamide]
IC50: 100 to 1000 nM

Cc1ccc(OCCCN2CCCCC2=O)cc1-c1ccnc(NC(=O)c2nnc(Cc3ccccc3)[nH]2)c1 [Example 84]
IC50: ≤ 100 nM

Cc1ccc(OCCCS(C)(=O)=O)cc1-c1ccnc(NC(=O)c2nnc(Cc3ccccc3)[nH]2)c1 [Example 73, 5-benzyl-N-(4-(2-methyl-5-(3-(methylsulfonyl)propoxy)phenyl)pyridin-2-yl)-4H-1,2,4-triazole-3-carboxamide]
IC50: ≤ 100 nM

CCOc1ccc(OC)c(-c2ccnc(NC(=O)c3nnc(Cc4ccccc4)[nH]3)c2)c1 [Example 107, 5-benzyl-N-(4-(5-ethoxy-2-methoxyphenyl)pyridin-2-yl)-4H-1,2,4-triazole-3-carboxamide]
IC50: 1000 to 10000 nM

Cc1ccc(F)cc1-c1ccnc(NC(=O)c2nnc(Cc3ccccc3)[nH]2)c1 [Example 33, 5-benzyl-N-(4-(5-fluoro-2-methylphenyl)pyridin-2-yl)-4H-1,2,4-triazole-3-carboxamide]
IC50: 100 to 1000 nM

Cc1ccc(OCCCC(C)(C)O)cc1-c1cc(NC(=O)c2nnc(CC3CCCCC3)[nH]2)ncc1Cl [Example 239, N-(5-chloro-4-(5-((4-hydroxy-4-methylpentyl)oxy)-2-methylphenyl)pyridin-2-yl)-5-(cyclohexylmethyl)-4H-1,2,4-triazole-3-carboxamide]
IC50: ≤ 100 nM

COCCCOc1ccc(Cl)c(-c2ccnc(NC(=O)c3nnc(CC4CCCC4)[nH]3)c2)c1 [Example 397, N-(4-(2-chloro-5-(3-methoxypropoxy)phenyl)pyridin-2-yl)-5-(cyclopentylmethyl)-4H-1,2,4-triazole-3-carboxamide]
IC50: ≤ 100 nM

Cc1cc(Cc2nnc(C(=O)Nc3cc(-c4cc(OCCCC(C)(C)O)ccc4C)ccn3)[nH]2)ccc1F [Example 208, 5-(4-fluoro-3-methylbenzyl)-N-(4-(5-((4-hydroxy-4-methylpentyl)oxy)-2-methylphenyl)pyridin-2-yl)-4H-1,2,4-triazole-3-carboxamide]
IC50: 100 to 1000 nM
